Test results published in patent US8247351B2, “Insecticidal compositions having improved effect” (Bayer Cropscience AG, priority 2005, dated 2012).

How the values were obtained:
Myzus persicae [1] = test: Myzus persicae test, Example C (spraying top side of leaf, ammonium salt plus penetrant); type: in vivo; details: 120 g/ha active ingredient
Description: (§1) Solvent: 7 parts by weight dimethylformamide
(§2) Emulsifier: 1 part by weight alkylaryl polyglycol ether
(§3) An appropriate preparation of active ingredient is prepared by mixing 1 part by weight of active ingredient with the stated amounts of solvent and emulsifier and diluting the concentrate with water to the desired concentration. Where it is necessary to add ammonium salts, phosphonium salts or penetrant, the appropriate amount is added by pipette, after dilution, to each of the ready prepared product solutions. Single-leaf paprika plants (Capsicum annuum) heavily infested by the green peach aphid (Myzus persicae) are treated by spraying the top side of the leaf (spray volume 600 1/ha) with the preparation of active ingredient at the desired concentration. After the desired time the destruction in % is ascertained. 100% means that all of the animals have been killed; 0% means that no animals have been killed.

Myzus persicae [2] = test: Myzus persicae test, Example B (spraying top side of leaf, ammonium salt boosting); type: in vivo; details: 120 g/ha active ingredient
Description: as §1, §2
as §3, with “ready-prepared” for “ready prepared”

[3] = Penetration of active ingredient through enzymatically isolated apple leaf cuticles (Examples A-1, A-2, A-3); type: in vitro ADME, apple trees of the Golden Delicious variety; details: 500 ppm in DMF/Emulgator W 7:1 (w/w)
Description: This test measured the penetration of active ingredients through enzymatically isolated cuticles of apple leaves.
The leaves used were cut in the fully developed state from apple trees of the Golden Delicious variety. The cuticles were isolated as follows: • first of all, leaf discs marked on the underside with dye and formed by punching were filled by means of vacuum infiltration with a pectinase solution (0.2% to 2% strength) buffered to a pH of between 3 and 4, • then sodium azide was added and • the leaf discs thus treated were left to stand until the original leaf structure broke down and the non-cellular cuticle underwent detachment.
Thereafter only those cuticles from the top leaf sides that were free from stomata and hairs were used. They were washed a number of times in alternation with water and with a buffer solution of pH 7. The clean cuticles obtained were, finally, applied to Teflon plaques, smoothed with a gentle jet of air, and dried.
In the next step the cuticular membranes obtained in this way were placed in stainless steel diffusion cells (i.e. transport chambers) for the purpose of membrane transport investigations. For these investigations the cuticles were placed centrally using tweezers on the edges of the diffusion cells, which were coated with silicone grease, and sealed with a ring, which was likewise greased. The arrangement had been chosen so that the morphological outer face of the cuticles was directed outwards, in other words to the air, while the original inner side was facing the interior of the diffusion cell.
The diffusion cells were filled with a 30% strength ethylene glycol/water solution. Penetration was determined by applying 10 μl of the spray liquor, whose composition is indicated below, to the outer face of each cuticle. The spray liquor is made up using local tap water of medium hardness.
After the spray liquors had been applied, the water was evaporated and the chambers were then inverted and placed in thermostated troughs in which the temperature and atmospheric humidity above the cuticle was adjustable by means of a gentle stream of air onto the cuticle with the spray coating (20° C., 60% rh). At regular intervals an autosampler took aliquots which were assayed for active ingredient by HPLC.
The figures indicated are average values from 8 to 10 measurements.
Example A-2 was carried out in the same way as in Example A-1.
Example A-3 was carried out in the same way as in Example A-1.

## Cc1ccc(-c2ccc(Cl)cc2)c(C)c1C1=C(O)C2(CCOCC2)NC1=O [Ex. I-1-a-2]
Myzus persicae [1]; RME (1 g/l)
  Degree of destruction/% after 4 days: 37%
Myzus persicae [1]; RME (1 g/l) + AS (1 g/l)
  Degree of destruction/% after 4 days: 92%

## CCOC(=O)OC1=C(c2cc(C)ccc2C)C(=O)N[C@]12CC[C@@H](OC)CC2 [Ex. I-1-c-1]
Myzus persicae [2]; AS (ammonium sulphate, 1 g/l)
  Degree of destruction/% after 3 days: 67%
Myzus persicae [2]; No AS
  Degree of destruction/% after 3 days: 37%

## Cc1cc(Cl)cc(C)c1C1=C(O)C2(CCOCC2)NC1=O [Example I-1-a-1]
[3]; Table A-1, EC + AS (ammonium sulphate, 1 g/l)
  Penetration after 24 h/%: 2.5%
[3]; Table A-1, EC + RME (1 g/l) + AS (1 g/l)
  Penetration after 24 h/%: 41%
[3]; Table A-1, EC + RME (rapeseed oil methyl ester, 1 g/l)
  Penetration after 24 h/%: 13.5%
[3]; Table A-1, EC alone, 20° C., 60% rh
  Penetration after 24 h/%: 0.6%
[3]; Table A-2, EC + RME (1 g/l) + AT (ammonium thiocyanate, 1 g/l)
  Penetration after 24 h/%: 12%
[3]; Table A-2, EC + RME (1 g/l)
  Penetration after 24 h/%: 3.5%
[3]; Table A-2, EC alone
  Penetration after 24 h/%: <0.2%
[3]; Table A-3, EC + RME (1 g/l) + Ammonium dihydrogen-phosphate (1 g/l)
  Penetration after 24 h/%: 42%
[3]; Table A-3, EC + RME (1 g/l) + Diammonium hydrogen-phosphate (1 g/l)
  Penetration after 24 h/%: 26%
[3]; Table A-3, EC + RME (1 g/l)
  Penetration after 24 h/%: 10%
